Measurements as given in patent US9193731B2, “Antimicrobial compounds and methods of making and using the same” (Melinta Therapeutics, Inc., priority 2009, dated 2015).

The molecules below were run on Escherichia coli strain ATCC25922 (assay: standard microdilution assay to determine minimum inhibitory concentrations (MICs)). Details: Escherichia coli strain ATCC25922, microdilution.
Format: cell-based
Procedure, shortened: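 Broth microdilution MIC against E. coli ATCC25922, following CLSI protocols, typically in a 100 microliter final volume. Results reported as +/− relative to a 16 micrograms/ml cutoff.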

SMILES | E. coli ATCC25922 MIC
CCNCCc1cc(OCC(F)CN)cc(-c2cc3cn(-c4ccc(CNCCCNC(=N)N)cc4)c(=O)nc3[nH]2)c1 (centres unmarked) [Compound 2033a] | + (a “+” indicates that the compound has an MIC value of 16 micrograms/ml or less)
N=C(N)NCCCNCc1ccc(-n2cc3cc(-c4cc(CCCCN)cc(OC(F)F)c4)[nH]c3nc2=O)cc1 [Compound 2074a] | + (a “+” indicates that the compound has an MIC value of 16 micrograms/ml or less)
N=C(N)NCCCNCc1ccc(-n2cc3cc(-c4cc(OCC(F)CN)cc(-c5cccc(CN)c5)c4)[nH]c3nc2=O)cc1 (centres unmarked) [Compound 2030a] | + (a “+” indicates that the compound has an MIC value of 16 micrograms/ml or less)
N=C(N)NCCCNC(=O)c1ccc(-n2cc3cc(-c4ccc(S(=O)(=O)N(Cc5cc(OC(F)(F)F)ccc5F)C5CCNCC5)cc4)[nH]c3nc2=O)cc1 [Compound 1090] | + (a “+” indicates that the compound has an MIC value of 16 micrograms/ml or less)
N=C(N)NCCCNCc1ccc(-n2cc3cc(-c4cc(C(=O)NCCc5cccc(F)c5)cc(N5CCNCC5)c4)[nH]c3nc2=O)cc1 [Compound 1068] | + (a “+” indicates that the compound has an MIC value of 16 micrograms/ml or less)
CN(C)Cc1ccc(-n2cc3cc(-c4ccc(S(=O)(=O)N(CC5COc6ccccc6O5)C5CCNCC5)cc4)[nH]c3nc2=O)cc1 (centres unmarked) [Compound 999] | − (a “−” indicates that the compound has an MIC value greater than 16 micrograms/ml)
NCCCNCc1ccc(-n2cc3cc(-c4cc(C(=O)N5CCC(C(N)=O)CC5)cc(N5CCNCC5)c4)[nH]c3nc2=O)cc1 [Compound 910] | − (a “−” indicates that the compound has an MIC value greater than 16 micrograms/ml)
N=C(N)NCCNCc1ccc(-n2cc3cc(-c4ccc(S(=O)(=O)NC5CCNCC5)cc4)[nH]c3nc2=O)cc1 [Compound 1104] | + (a “+” indicates that the compound has an MIC value of 16 micrograms/ml or less)
N=C(N)NCCCNCc1ccc(-n2cc3cc(-c4cc(F)cc(CCCCN)c4)[nH]c3nc2=O)cc1 [Compound 2085a] | + (a “+” indicates that the compound has an MIC value of 16 micrograms/ml or less)
N=C(N)NCCCNCc1ccc(-n2cc3cc(-c4ccc(C(NC5CN(C(=N)N)C5)C(F)F)cc4)[nH]c3nc2=O)cc1 (centres unmarked) [Compound 2006a] | + (a “+” indicates that the compound has an MIC value of 16 micrograms/ml or less)
N=C(N)NOCCNC(=O)c1ccc(-n2cc3cc(-c4ccc(S(=O)(=O)NC5CCNCC5)cc4)[nH]c3nc2=O)cc1 [Compound 1137] | − (a “−” indicates that the compound has an MIC value greater than 16 micrograms/ml)
COc1ccc(CCN(C2CCNCC2)S(=O)(=O)c2cccc(-c3cc4cn(-c5ccc(CNCCCN=C(N)N)cc5)c(=O)nc4[nH]3)c2)cc1 [Compound 1226] | + (a “+” indicates that the compound has an MIC value of 16 micrograms/ml or less)
N=C(N)NCCCNCc1ccc(-n2cc3cc(-c4ccc(C(NC5CNC5)C(F)(F)F)cc4)[nH]c3nc2=O)cc1 (centres unmarked) [Compound 1431] | + (a “+” indicates that the compound has an MIC value of 16 micrograms/ml or less)
N=C(N)NCCCNCc1ccc(-n2cc3cc(C4CCN(CC(O)CN)C4)[nH]c3nc2=O)cc1 (centres unmarked) [Compound 1456] | + (a “+” indicates that the compound has an MIC value of 16 micrograms/ml or less)
N=C(N)NCCCNCc1ccc(-n2cc3cc(-c4cc(CCNC(N)=O)cc(OCC(F)CN)c4)[nH]c3nc2=O)cc1 (centres unmarked) [Compound 2012a] | − (a “−” indicates that the compound has an MIC value greater than 16 micrograms/ml)
CN1CCN(CCCN(C2CCNCC2)S(=O)(=O)c2ccc(-c3cc4cn(-c5ccc(CN6CC[C@@H](NC(=N)N)C6)cc5)c(=O)nc4[nH]3)cc2)CC1 [Compound 1207] | − (a “−” indicates that the compound has an MIC value greater than 16 micrograms/ml)
N=C(N)NCCCNCc1ccc(-n2cc3cc(-c4cccc(S(=O)(=O)N(Cc5ccc6nonc6c5)C5CCNCC5)c4)[nH]c3nc2=O)cc1 [Compound 1076] | + (a “+” indicates that the compound has an MIC value of 16 micrograms/ml or less)
N=C(N)NCCCNCc1ccc(-n2cc3cc(-c4cccc(OC[C@@H]5CCNC5)c4)[nH]c3nc2=O)cc1 [Compound 1423] | + (a “+” indicates that the compound has an MIC value of 16 micrograms/ml or less)
N=C(N)NCCCNCc1ccc(-n2cc3cc(-c4ccc(NC(=O)CNC5CCNCC5)cc4)[nH]c3nc2=O)cc1 [Compound 1290] | + (a “+” indicates that the compound has an MIC value of 16 micrograms/ml or less)
N=C(N)NCCCNCc1ccc(-n2cc3cc(-c4cc(C(=O)NC5CCC(F)(F)CC5)cc(N5CCNCC5)c4)[nH]c3nc2=O)cc1 [Compound 1045] | + (a “+” indicates that the compound has an MIC value of 16 micrograms/ml or less)
N=C(N)NCCCNCc1ccc(-n2cc3cc(-c4ccc(S(=O)(=O)NC5CCNCC5)cc4)[nH]c3nc2=O)cc1 [Compound 871] | + (a “+” indicates that the compound has an MIC value of 16 micrograms/ml or less)

Same assay, conditions: Escherichia coli, ATCC25922, Escherichia coli strain ATCC25922, microdilution; read-out: E. coli ATCC25922 MIC

MIC [µg/mL] | SMILES
> 16 | N=C(N)NCCCNCc1ccc(-c2cn3cc(-c4ccc(C(=O)N5CCS(=O)(=O)CC5)cc4)[nH]c3nc2=O)cc1 [Compound 700]
< 16 | N=C(N)NCCCN(CCCN)Cc1ccc(-n2cc3cc(-c4ccc(S(=O)(=O)NC5CCNCC5)cc4)[nH]c3nc2=O)cc1 [Compound 220]
> 16 | N=C(N)NCCCNC(=O)c1ccc(-n2cc3cc(C4CCCNC4)[nH]c3nc2=O)cc1 (centres unmarked) [Compound 1257]
> 16 | NCCCNCc1ccc(-n2cc3cc(-c4ccc(OC(F)(F)F)cc4)[nH]c3nc2=O)cc1 [Compound 296]
> 16 | CN(C)CCCOc1cccc(-c2cc3cn(-c4ccc(CNC(=O)CCNC(=N)N)cc4)c(=O)nc3[nH]2)c1 [Compound 1202]
< 16 | N=C(N)NCCCNCc1ccc(-c2cn3cc(-c4ccc(C(=O)N5CC6CC5CN6)cc4)[nH]c3nc2=O)cc1 (centres unmarked) [Compound 745]
> 16 | NCCCNCc1ccc(-n2cc3c(nc2=O)[nH]c2ccccc23)cc1 [Compound 335]
< 16 | N=C(N)NCCCNCc1ccc(-n2cc3cc(-c4cccc(NCC(=O)N5CCNCC5)c4)[nH]c3nc2=O)cc1 [Compound 645]
> 16 | NCc1ccc(-n2cc3cc(-c4ccc(S(=O)(=O)N(CCCC5CCCO5)C5CCNCC5)cc4)[nH]c3nc2=O)cc1 (centres unmarked) [Compound 1066]
< 16 | CN1CCN(C(=O)c2ccc(-c3cn4cc(-c5ccc(CNCCCNC(=N)N)cc5)c(=O)nc4[nH]3)cc2)CC1 [Compound 706]
> 16 | NCCCNCc1ccc(-n2cc3cc(CCC(=O)N4CC[C@H](F)C4)[nH]c3nc2=O)cc1 [Compound 298]
> 16 | O=c1nc2[nH]c3ccccc3c2cn1C1CCNC1 (centres unmarked) [Compound 597]
> 16 | CN(CCCOc1cccc(-c2cc3cn(-c4ccc(CNCCCNC(=N)N)cc4)c(=O)nc3[nH]2)c1)C(=O)c1ccccc1 [Compound 1204]
> 16 | N=C(N)NCCCNCc1ccc(C2N=c3cc(C4CNCCO4)[nH]c3=NC2=O)cc1 (centres unmarked) [Compound 1329]
> 16 | NCC(O)Cn1cc2cc(-c3ccc(S(=O)(=O)NC4CCNCC4)cc3)[nH]c2nc1=O (centres unmarked) [Compound 1149]
> 16 | NCCCNCc1ccc(-c2cn3cc(-c4ccc(F)cc4)[nH]c3nc2=O)cc1 [Compound 506]
> 16 | COCCOCCOc1cccc(-c2cc3cn(-c4ccc(CNCCCNC(=N)N)cc4)c(=O)nc3[nH]2)c1 [Compound 1101]

MIC [µg/mL] | SMILES
> 16 | NCc1ccc(-n2cc3cc(-c4cccc(S(=O)(=O)N(CCn5ccnc5)C5CCNCC5)c4)[nH]c3nc2=O)cc1 [Compound 1157]
> 16 | NCc1ccc(-n2cc3cc(-c4cccc(OCCOc5ccc(Cl)cc5)c4)[nH]c3nc2=O)cc1 [Compound 1127]
< 16 | N=C(N)NCCCNCc1ccc(-n2cc3cc(CCN(C(=O)c4ccccc4)C4CCNCC4)[nH]c3nc2=O)cc1 [Compound 688]
> 16 | Cc1cc(CNc2cn3cc(-c4ccc(CNCCCN)cc4)c(=O)nc3[nH]2)no1 [Compound 679]
< 16 | NCc1ccc(-n2cc3cc(-c4cc(F)c(C(=O)NC5CCNCC5)c(F)c4)[nH]c3nc2=O)cc1 [Compound 258]
> 16 | CNCc1ccc(-n2cc3cc(-c4ccc(S(=O)(=O)N(CCCN5CCCCC5C)C5CCNCC5)cc4)[nH]c3nc2=O)cc1 (centres unmarked) [Compound 1039]
> 16 | N=C(N)N[C@H]1CCCN(Cc2ccc(-n3cc4cc[nH]c4nc3=O)cc2)C1 [Compound 1155]
> 16 | N=C(N)NCCCOCc1ccc(-c2cn3cc(-c4ccc(C(=O)N5CCNCC5)cc4)[nH]c3nc2=O)cc1 [Compound 932]
> 16 | NCCCNCc1ccc(-c2cn3cc(-c4ccc(C(=O)NCCO)cc4)[nH]c3nc2=O)cc1 [Compound 827]
< 16 | N=C(N)NCCC(=O)NCc1ccc(-n2cc3cc(-c4ccc(C[C@H](N)CO)cc4)[nH]c3nc2=O)cc1 [Compound 1163]
> 16 | COCCOCCOc1cccc(-c2cc3cn(-c4ccc(CN)cc4)c(=O)nc3[nH]2)c1 [Compound 1094]
> 16 | NCCCc1c[nH]c2cc(-n3cc4cc(CCS(=O)(=O)C5CCNCC5)[nH]c4nc3=O)ccc12 [Compound 1282]
< 16 | NCCCCCN1CC=C(n2cc3cc(-c4ccc(C(=O)NC5CCNCC5)cc4)[nH]c3nc2=O)CC1 [Compound 507]
> 16 | O=C(NC1CCNCC1)c1ccc(-c2cc3cn(-c4ccc(CNCCCCl)cc4)c(=O)nc3[nH]2)c(F)c1 [Compound 253]
< 16 | N=C(N)NCCCNCc1ccc(-n2cc3cc(-c4cccc(S(=O)(=O)NC5CCNCC5)c4)[nH]c3nc2=O)cc1 [Compound 836]
< 16 | N=C(N)NCCCNCc1ccc(-n2cc3cc(C4CCCC(CNCCN)C4)[nH]c3nc2=O)cc1 (centres unmarked) [Compound 2026a]

SMILES | MIC [µg/mL]
N=C(N)NCCCNCc1ccc(-c2cn3cc(-c4ccc(C(=O)N5C6CCC5CC(=O)C6)cc4)[nH]c3nc2=O)cc1 [Compound 703] | > 16
N=C(N)NCCCN(CCCN)Cc1ccc(-n2cc3cc(-c4ccc(C(=O)NC5CN6CCC5CC6)cc4)[nH]c3nc2=O)cc1 (centres unmarked) [Compound 216] | < 16
